Test results as given in paper PMC6199744, “Development of Chemical Proteomics for the Folateome and Analysis of the Kinetoplastid Folateome” (ACS Infectious Diseases, 2018).
Like-named read-outs stand apart in the source and are kept apart here.

Experiments:
Format in all cases: binding
[1] = biological target: T1, HeLa cell extract proteins (Homo sapiens, UniProt P04406)
T1 construct: endogenous in cells; host or cells: HeLa cell extract

[2] = biological target: T2, HeLa cell extract proteins (Homo sapiens, UniProt P08559)
T2 construct: endogenous in cells; host or cells: HeLa cell extract
T2 sequence (P08559 30-390): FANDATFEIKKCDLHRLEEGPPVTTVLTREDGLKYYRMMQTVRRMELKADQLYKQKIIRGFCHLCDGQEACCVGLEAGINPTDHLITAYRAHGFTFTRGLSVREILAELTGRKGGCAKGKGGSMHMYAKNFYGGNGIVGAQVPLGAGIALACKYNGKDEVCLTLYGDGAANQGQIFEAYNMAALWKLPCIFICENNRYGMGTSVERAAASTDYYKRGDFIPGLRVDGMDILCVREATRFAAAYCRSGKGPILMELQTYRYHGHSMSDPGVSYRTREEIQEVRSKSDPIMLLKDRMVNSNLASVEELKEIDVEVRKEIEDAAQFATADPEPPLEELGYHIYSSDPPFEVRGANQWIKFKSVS

[3] = biological target: T3, HeLa cell extract proteins (Homo sapiens, UniProt Q6ZN16)
T3 construct: endogenous in cells; host or cells: HeLa cell extract
T3 sequence (Q6ZN16 1-1313): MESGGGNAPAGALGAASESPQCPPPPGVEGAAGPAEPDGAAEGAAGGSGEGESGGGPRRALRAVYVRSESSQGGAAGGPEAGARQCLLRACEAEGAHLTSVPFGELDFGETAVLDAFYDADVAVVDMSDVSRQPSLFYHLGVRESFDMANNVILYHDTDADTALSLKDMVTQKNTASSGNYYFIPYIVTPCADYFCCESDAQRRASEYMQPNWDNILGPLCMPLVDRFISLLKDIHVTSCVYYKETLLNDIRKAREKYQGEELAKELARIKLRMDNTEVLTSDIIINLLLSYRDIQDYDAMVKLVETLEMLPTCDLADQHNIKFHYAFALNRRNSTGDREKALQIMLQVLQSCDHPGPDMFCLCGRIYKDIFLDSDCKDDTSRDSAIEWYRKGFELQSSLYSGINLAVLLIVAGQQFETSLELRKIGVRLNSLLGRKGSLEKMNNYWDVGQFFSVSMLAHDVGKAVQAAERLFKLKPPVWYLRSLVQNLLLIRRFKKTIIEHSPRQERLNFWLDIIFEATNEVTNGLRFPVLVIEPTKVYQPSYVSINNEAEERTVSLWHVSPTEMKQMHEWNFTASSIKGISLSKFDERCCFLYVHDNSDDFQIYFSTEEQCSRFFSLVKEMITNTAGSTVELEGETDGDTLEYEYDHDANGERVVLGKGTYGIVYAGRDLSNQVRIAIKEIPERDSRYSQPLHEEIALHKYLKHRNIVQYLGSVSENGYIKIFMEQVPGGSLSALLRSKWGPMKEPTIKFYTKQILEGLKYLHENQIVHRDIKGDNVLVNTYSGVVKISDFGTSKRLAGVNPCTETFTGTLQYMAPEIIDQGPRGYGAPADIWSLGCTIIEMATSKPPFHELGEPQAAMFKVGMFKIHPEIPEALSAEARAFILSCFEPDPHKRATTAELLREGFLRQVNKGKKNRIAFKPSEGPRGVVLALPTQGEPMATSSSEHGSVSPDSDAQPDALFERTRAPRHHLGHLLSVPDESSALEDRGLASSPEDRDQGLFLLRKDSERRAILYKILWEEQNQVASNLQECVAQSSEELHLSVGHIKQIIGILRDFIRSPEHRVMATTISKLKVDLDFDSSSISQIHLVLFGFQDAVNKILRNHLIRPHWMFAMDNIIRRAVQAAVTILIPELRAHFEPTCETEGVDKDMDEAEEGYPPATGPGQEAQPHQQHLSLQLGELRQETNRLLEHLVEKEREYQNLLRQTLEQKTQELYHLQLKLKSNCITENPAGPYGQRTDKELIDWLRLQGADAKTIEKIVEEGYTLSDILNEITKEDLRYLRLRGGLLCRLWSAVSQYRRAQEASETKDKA

[4] = biological target: T4, HeLa cell extract proteins (Homo sapiens, UniProt Q8N5P1)
T4 construct: endogenous in cells; host or cells: HeLa cell extract
T4 sequence (Q8N5P1 1-291): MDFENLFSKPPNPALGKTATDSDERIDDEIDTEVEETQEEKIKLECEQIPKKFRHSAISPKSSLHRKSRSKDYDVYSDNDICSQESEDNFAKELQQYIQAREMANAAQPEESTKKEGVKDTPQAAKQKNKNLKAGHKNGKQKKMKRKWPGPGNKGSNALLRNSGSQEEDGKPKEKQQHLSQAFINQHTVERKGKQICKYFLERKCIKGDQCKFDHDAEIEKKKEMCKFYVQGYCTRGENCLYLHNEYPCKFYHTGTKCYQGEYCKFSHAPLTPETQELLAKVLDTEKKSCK

[5] = biological target: T5, HeLa cell extract proteins (Homo sapiens, UniProt Q9C0E2)
T5 construct: endogenous in cells; host or cells: HeLa cell extract
T5 sequence (Q9C0E2 whole entry): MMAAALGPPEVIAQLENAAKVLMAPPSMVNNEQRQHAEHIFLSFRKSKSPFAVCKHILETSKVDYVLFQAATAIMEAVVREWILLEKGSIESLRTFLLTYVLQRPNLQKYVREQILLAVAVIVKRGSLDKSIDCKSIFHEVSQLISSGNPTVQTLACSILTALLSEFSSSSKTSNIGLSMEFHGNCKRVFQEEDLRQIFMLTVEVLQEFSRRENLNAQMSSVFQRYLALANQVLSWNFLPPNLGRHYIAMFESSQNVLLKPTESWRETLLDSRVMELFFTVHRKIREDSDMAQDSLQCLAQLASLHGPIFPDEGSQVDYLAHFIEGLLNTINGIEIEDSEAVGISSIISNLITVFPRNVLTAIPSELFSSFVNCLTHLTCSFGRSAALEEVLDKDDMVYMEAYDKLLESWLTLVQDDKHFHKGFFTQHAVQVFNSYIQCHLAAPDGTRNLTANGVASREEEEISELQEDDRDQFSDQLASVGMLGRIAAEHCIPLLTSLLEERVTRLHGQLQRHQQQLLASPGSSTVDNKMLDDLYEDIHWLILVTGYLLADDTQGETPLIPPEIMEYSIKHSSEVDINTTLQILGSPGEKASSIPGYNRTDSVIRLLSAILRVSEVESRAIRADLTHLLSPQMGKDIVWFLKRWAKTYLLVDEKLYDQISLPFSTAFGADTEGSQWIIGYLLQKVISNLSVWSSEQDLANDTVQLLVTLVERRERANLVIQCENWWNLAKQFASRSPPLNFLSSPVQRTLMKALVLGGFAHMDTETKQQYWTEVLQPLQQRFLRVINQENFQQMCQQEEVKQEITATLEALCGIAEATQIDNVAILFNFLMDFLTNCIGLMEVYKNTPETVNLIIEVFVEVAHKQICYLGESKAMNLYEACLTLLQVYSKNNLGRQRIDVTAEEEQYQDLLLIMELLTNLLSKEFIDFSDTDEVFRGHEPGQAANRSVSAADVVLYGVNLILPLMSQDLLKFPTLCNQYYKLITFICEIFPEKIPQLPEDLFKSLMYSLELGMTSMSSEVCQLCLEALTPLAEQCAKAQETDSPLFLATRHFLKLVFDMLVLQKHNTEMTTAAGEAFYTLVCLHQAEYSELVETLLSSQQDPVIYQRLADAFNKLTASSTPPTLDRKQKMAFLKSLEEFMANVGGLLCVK

[6] = biological target: T6, HeLa cell extract proteins (Homo sapiens, UniProt Q9Y6E2)
T6 construct: endogenous in cells; host or cells: HeLa cell extract
T6 sequence (Q9Y6E2 1-419): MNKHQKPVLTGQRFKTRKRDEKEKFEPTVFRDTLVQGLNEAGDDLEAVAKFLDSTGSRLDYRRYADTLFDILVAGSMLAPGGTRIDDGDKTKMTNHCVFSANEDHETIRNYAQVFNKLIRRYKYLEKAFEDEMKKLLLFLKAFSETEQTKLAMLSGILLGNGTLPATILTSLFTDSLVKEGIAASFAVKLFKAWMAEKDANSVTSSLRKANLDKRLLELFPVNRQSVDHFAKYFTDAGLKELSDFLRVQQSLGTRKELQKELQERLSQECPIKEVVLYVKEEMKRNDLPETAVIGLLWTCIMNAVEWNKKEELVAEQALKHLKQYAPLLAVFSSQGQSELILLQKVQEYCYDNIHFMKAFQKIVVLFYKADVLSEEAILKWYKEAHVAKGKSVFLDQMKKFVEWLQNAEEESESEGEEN

[7] = HeLa, protein G3P1_HUMAN (GLYCERALDEHYDE-3-PHOSPHATE DEHYDROGENASE, MUSCLE.)
[8] = HeLa, protein GAPDH (39 KDA PROTEIN.)
[9] = HeLa, protein ZC3H8 (ZINC FINGER CCCH DOMAIN-CONTAINING PROTEIN 8)

T1 sequence (P04406 whole entry): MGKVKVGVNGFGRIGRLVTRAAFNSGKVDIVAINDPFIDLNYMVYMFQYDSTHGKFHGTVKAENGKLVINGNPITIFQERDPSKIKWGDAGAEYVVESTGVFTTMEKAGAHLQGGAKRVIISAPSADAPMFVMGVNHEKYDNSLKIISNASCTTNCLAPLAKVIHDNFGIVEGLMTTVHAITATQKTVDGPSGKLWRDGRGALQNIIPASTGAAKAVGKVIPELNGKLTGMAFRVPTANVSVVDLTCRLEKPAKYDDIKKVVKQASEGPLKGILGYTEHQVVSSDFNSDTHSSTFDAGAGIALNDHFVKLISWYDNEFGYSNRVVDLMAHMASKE

SMILES	fold changes relative to vehicle control [1, 7] [fold]	fold changes relative to vehicle control [1, 8] [fold]	fold changes relative to vehicle control ([2]; HeLa, protein PDHA1)	fold changes relative to vehicle control ([3]; captured protein MAP3K15, HeLa)	fold changes relative to vehicle control ([4]; protein ZC3H8, HeLa)	fold changes relative to vehicle control ([5]; HeLa, protein XPO4)	fold changes relative to vehicle control ([6]; protein BZW2, HeLa)	fold changes relative to vehicle control [1]	fold changes relative to vehicle control [2]	fold changes relative to vehicle control [3]	fold changes relative to vehicle control [4]	fold changes relative to vehicle control [5]	fold changes relative to vehicle control [6]	fold changes relative to vehicle control ([1]; protein GAPDH, HeLa)	fold changes relative to vehicle control ([2]; HeLa, captured protein PDHA1)	fold changes relative to vehicle control ([3]; HeLa, protein MAP3K15)	fold changes relative to vehicle control [4, 9]	fold changes relative to vehicle control ([6]; HeLa, protein BZW2)
Nc1nc2cccc(-c3ccccc3)c2n1Cc1ccc(Cl)c(Cl)c1 [compound 3]	0.84	0.95	1.07	1.01	0.99	1.07	0.93	–	–	–	–	–	–	–	–	–	–	–
Nc1nc2[nH]cc(CCc3ccc(C(=O)N[C@@H](CCC(=O)O)C(=O)O)cc3)c2c(=O)[nH]1 [PTX, pemetrexed]	–	–	–	–	–	–	–	1.14	1.04	1.07	1.51	0.82	0.98	–	–	–	–	–
Nc1nc2c(c(=O)[nH]1)N(C=O)C(CNc1ccc(C(=O)N[C@@H](CCC(=O)O)C(=O)O)cc1)CN2 (stereo partly drawn) [LEU, leucovorin]	–	–	–	–	–	0.92	–	–	–	–	–	–	–	1.01	1.06	1	1.22	0.99
CCCCCCOc1cccc(Cc2cnc(N)nc2N)c1 [compound 2]	2.61	2.46	0.4	1.02	0.96	1.08	1.57	–	–	–	–	–	–	–	–	–	–	–
NCCOCCOCC(=O)Nc1nc2ncc(CNc3ccc(C(=O)NC(CCC(=O)O)C(=O)O)cc3)nc2c(=O)[nH]1 (stereo not drawn) [compound 6]	–	–	–	–	–	0.94	–	–	–	–	–	–	–	1.35	1	1.03	1.04	1.1
CCCCCCOc1ccc(Cc2cnc(N)nc2N)cc1 [compound 1]	1.39	1.52	1.02	1.03	1.19	0.91	1.11	–	–	–	–	–	–	–	–	–	–	–
NCCCNc1ccc(C(=O)NC(CCC(=O)O)C(=O)O)cc1 (stereo not drawn) [compound 7]	–	–	–	–	–	1	–	–	–	–	–	–	–	0.97	0.99	1.1	1	1.12
